Source: patent US10723741B1, “DNA polymerase IIIC inhibitors and use thereof” (Acurx Pharmaceuticals, LLC, priority 2018, dated 2020)
Converted amounts (≈) assume the structure as drawn. Where two headings read alike, the source gives them in different places.

Experiments:
Type in all cases: cell-based
[1] = test system: Staphylococcus aureus NRS384 (MRSA); assay: Broth microdilution MIC, S. aureus NRS384 (MRSA); settings: Staphylococcus aureus, broth microdilution, 37° C., 20 hours
Outline: (§1)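 Broth microdilution in strain-specific test medium with ~5.0×10^5 cfu/ml inoculum, 1% DMSO and two-fold compound dilutions from 64 to 0.0625 μg/ml. Plates were held 20 hours at 37° C in ambient air. S. pneumoniae colonies were grown beforehand on blood agar in 5% CO2.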

[2] = test system: Enterococcus faecium ATCC 700221 (VRE); assay: Broth microdilution MIC, E. faecium ATCC 700221 (VRE); settings: Enterococcus faecium, broth microdilution, 37° C., 20 hours
Outline: as §1

[3] = test system: Enterococcus faecalis ATCC 29212; assay: Broth microdilution MIC, E. faecalis ATCC 29212; settings: ATCC29212, broth microdilution, 37° C., 20 hours, read-out: MIC E. faecalis ATCC 29212
Outline: as §1

[4] = test system: Escherichia coli ATCC 25922; assay: Broth microdilution MIC, E. coli ATCC 25922 (MHIIB w & w/o 4 mM EDTA); settings: broth microdilution, 37° C., 20 hours; for MIC: Escherichia coli, ATCC25922, without EDTA, read-out: MIC E. coli ATCC 25922; for MIC E. coli ATCC 25922 + 4 mM EDTA: with 4 mM EDTA
Outline: as §1

[5] = test system: Bacillus subtilis ATCC 6633; assay: Broth microdilution MIC, B. subtilis ATCC 6633; settings: ATCC6633, broth microdilution, 37° C., 20 hours, read-out: MIC B. subtilis ATCC 6633
Outline: as §1

[6] = test system: Streptococcus pneumoniae ATCC 49619; assay: Broth microdilution MIC, S. pneumoniae ATCC 49619; settings: ATCC49619, broth microdilution, 37° C., 20 hours, read-out: MIC S. pneumoniae ATCC 49619
Outline: as §1

[7] = test system: Staphylococcus aureus ATCC 29213 (MSSA); assay: Broth microdilution MIC, S. aureus ATCC 29213 (MSSA); settings: broth microdilution, 37° C., 20 hours, read-out: MIC S. aureus ATCC 29213 (MSSA)
Outline: as §1

[8] = MHIIB, read-out: MIC against S. aureus NRS 384 (MRSA)
[9] = read-out: MIC E. faecium ATCC 700221 (VRE)
[10] = MHIIB, read-out: MIC against E. faecium ATCC 700221 (VRE)

| Structure (SMILES) | MIC ([1]; read-out: MIC NRS 384 (MRSA)) [µg/mL] | MIC [1, 8] [µg/mL] | MIC [2, 9] [µg/mL] | MIC [2, 10] [µg/mL] | MIC [3] [µg/mL] | MIC [4] [µg/mL] | MIC E. coli ATCC 25922 + 4 mM EDTA [4] [µg/mL] | MIC [5] [µg/mL] | MIC [6] [µg/mL] | MIC [7] [µg/mL] |
| --- | --- | --- | --- | --- | --- | --- | --- | --- | --- | --- |
| C=CCn1ncc2nc(NCc3ccc(Cl)c(Cl)c3)[nH]c(=O)c21 [Compound 56, 1-allyl-5-((3,4-dichlorobenzyl)amino)-1H-pyrazolo[4,3-d]pyrimidin-7(6H)-one] | 0.5 (≈ 1.43 µM) | ≤ 1 | 0.5 (≈ 1.43 µM) | ≤ 1 | 2 (≈ 5.71 µM) | > 64 | >64 | 0.25 (≈ 0.714 µM) | 2 (≈ 5.71 µM) | 1 (≈ 2.86 µM) |
| O=c1[nH]c(NCc2ccc(Cl)c(Cl)c2)nc2cnn(C3CC3)c12 [Compound 213, 1-Cyclopropyl-5-((3,4-dichlorobenzyl)amino)-1H-pyrazolo[4,3-d]pyrimidin-7(6H)-one] | 1 (≈ 2.86 µM) | ≤ 1 | 1 (≈ 2.86 µM) | ≤ 1 | 2 (≈ 5.71 µM) | > 64 | >64 | 0.5 (≈ 1.43 µM) | 4 (≈ 11.4 µM) | 1 (≈ 2.86 µM) |
| COCCn1ncc2nc(NCc3ccc(Cl)c(Cl)c3)[nH]c(=O)c21 [Compound 126, 5-((3,4-dichlorobenzyl)amino)-1-(2-methoxyethyl)-1H-pyrazolo[4,3-d]pyrimidin-7(6H)-one] | 2 (≈ 5.43 µM) | – | 2 (≈ 5.43 µM) | – | 4 (≈ 10.9 µM) | > 64 | >64 | 1 (≈ 2.72 µM) | 2 (≈ 5.43 µM) | 2 (≈ 5.43 µM) |
| COC(=O)CCCCn1ncc2nc(NCc3ccc(Cl)c(Cl)c3)[nH]c(=O)c21 [Compound 218, methyl 5-[5-[(3,4-dichlorophenyl)methylamino]-7-oxo-6H-pyrazolo[4,3-d]pyrimidin-1-yl]pentanoate] | 1 (≈ 2.36 µM) | ≤ 1 | 1 (≈ 2.36 µM) | ≤ 1 | 2 (≈ 4.71 µM) | > 64 | >64 | 0.5 (≈ 1.18 µM) | 2 (≈ 4.71 µM) | 1 (≈ 2.36 µM) |
| O=C([C@@H](O)[C@H](O)CO)N1CCC(n2ncc3nc(NCc4ccc(Cl)c(Cl)c4)[nH]c(=O)c32)CC1 [Compound 276, 5-((3,4-dichlorobenzyl)amino)-1-(1-((2S,3R)-2,3,4-trihydroxybutanoyl)piperidin-4-yl)-1H-pyrazolo[4,3-d]pyrimidin-7(6H)-one] | 64 (≈ 125 µM) | – | 32 (≈ 62.6 µM) | – | 64 (≈ 125 µM) | > 64 | >64 | 16 (≈ 31.3 µM) | 8 (≈ 15.6 µM) | > 64 |
| Cn1ncc2nc(NCc3ccc(Cl)c(Cl)c3)[nH]c(=O)c21 [Compound 2, 5-((3,4-Dichlorobenzyl)amino)-1-methyl-1H-pyrazolo[4,3-d]pyrimidin-7(6H)-one] | 1 (≈ 3.08 µM) | ≤ 1 | 1 (≈ 3.08 µM) | ≤ 1 | 2 (≈ 6.17 µM) | > 64 | >64 | 1 (≈ 3.08 µM) | 4 (≈ 12.3 µM) | 2 (≈ 6.17 µM) |
| O=c1[nH]c(NCc2ccc(Cl)c(Cl)c2)nc2cnn(C3CCCC3)c12 [Compound 214, 1-cyclopentyl-5-((3,4-dichlorobenzyl)amino)-1H-pyrazolo[4,3-d]pyrimidin-7(6H)-one] | 1 (≈ 2.64 µM) | ≤ 1 | 1 (≈ 2.64 µM) | ≤ 1 | 2 (≈ 5.29 µM) | > 64 | >64 | 0.5 (≈ 1.32 µM) | 8 (≈ 21.1 µM) | 2 (≈ 5.29 µM) |
| Cl.O=c1[nH]c(NCc2ccc(Cl)c(Cl)c2)nc2cnn(CC3CNCCO3)c12 (centres unmarked) [Compound 149, 5-((3,4-dichlorobenzyl)amino)-1-(morpholin-2-ylmethyl)-1H-pyrazolo[4,3-d]pyrimidin-7(6H)-one hydrochloride] | 32 | – | 8 | – | 16 | > 64 | 64 | 2 | 4 | 16 |
| O=c1[nH]c(NCc2ccc(Cl)c(Cl)c2)nc2cnn(-c3ccccc3)c12 [Compound 212, 5-[(3,4-dichlorophenyl)methylamino]-1-phenyl-6H-pyrazolo[4,3-d]pyrimidin-7-one] | 1 (≈ 2.59 µM) | ≤ 1 | 1 (≈ 2.59 µM) | ≤ 1 | > 64 | > 64 | >64 | 1 (≈ 2.59 µM) | 8 (≈ 20.7 µM) | 1 (≈ 2.59 µM) |
| Cl.O=c1[nH]c(NCc2ccc(Cl)c(Cl)c2)nc2cnn(C3CCN(C4CCOCC4)CC3)c12 [Compound 242, 5-((3,4-dichlorobenzyl)amino)-1-(1-(tetrahydro-2H-pyran-4-yl)piperidin-4-yl)-1H-pyrazolo[4,3-d]pyrimidin-7(6H)-one hydrochloride] | 4 | – | 2 | – | 4 | > 64 | 32 | 2 | 2 | 8 |
| O=C(O)CCC(=O)N1CCC(n2ncc3nc(NCc4ccc(Cl)c(Cl)c4)[nH]c(=O)c32)CC1 [Compound 273, 4-(4-(5-((3,4-dichlorobenzyl)amino)-7-oxo-6,7-dihydro-1H-pyrazolo[4,3-d]pyrimidin-1-yl)piperidin-1-yl)-4-oxobutanoic Acid] | > 64 | – | 32 (≈ 64.9 µM) | – | 64 (≈ 130 µM) | > 64 | >64 | > 64 | 32 (≈ 64.9 µM) | > 64 |
| Cl.Cl.O=c1[nH]c(NCc2ccc(Cl)c(Cl)c2)nc2cnn(CCOCCN3CCNCC3)c12 [Compound 167, 5-[(3,4-dichlorophenyl)methylamino]-1-[2-(2-piperazin-1-ylethoxy)ethyl]-6H-pyrazolo[4,3-d]pyrimidin-7-one] | > 64 | – | 64 | – | 64 | > 64 | >64 | 16 | 16 | – |
| O=c1[nH]c(NCc2ccc(Cl)c(Cl)c2)nc2cn[nH]c12 [Compound 77, 5-((3,4-dichlorobenzyl)amino)-1H-pyrazolo[4,3-d]pyrimidin-7(6H)-one] | 8 (≈ 25.8 µM) | – | 4 (≈ 12.9 µM) | – | 8 (≈ 25.8 µM) | > 64 | >64 | 4 (≈ 12.9 µM) | 4 (≈ 12.9 µM) | 8 (≈ 25.8 µM) |
| Cc1nn(C)c2c(=O)[nH]c(NCc3ccc(Cl)c(Cl)c3)nc12 [Compound 44, 5-((3,4-dichlorobenzyl)amino)-1,3-dimethyl-1H-pyrazolo[4,3-d]pyrimidin-7(6H)-one] | 2 (≈ 5.91 µM) | ≤ 1 | 4 (≈ 11.8 µM) | ≤ 1 | 4 (≈ 11.8 µM) | > 64 | >64 | 2 (≈ 5.91 µM) | 4 (≈ 11.8 µM) | 2 (≈ 5.91 µM) |
